In patent US7371407B2, “Use of Emu Oil and its various fractions as a carrier for antifungal, antibacterial, and antiviral medications and preparations” (Ganeden Biotech, Inc., priority 1999, dated 2008):

Tests used:
[1] = topically-administered without dermal-penetrants; cited from earlier work
[2] = system: opportunistic bacterial pathogens; test: In vitro bacterial pathogen screen (DIFCO BACTROL Disk Set) on potato-dextrose plates; format: cell-based; conditions: positive control, 18 hr at 30° C.
Text: The ability of Bacillus coagulans to inhibit various opportunistic bacterial pathogens was quantitatively ascertained by use of an in vitro assay. This assay is part of a standardized bacterial pathogen screen (developed by the U.S. Food and Drug Administration(FDA)) and is commercially available on solid support disks (DIFCO® BACTROL® Disk Set). To perform the assay, potato-dextrose plates (DIFCO®) were initially prepared using standard procedures. The plates were then individually inoculated with each of the bacteria (approximately 1.5×10^6 CFU) to be tested, so as to form a confluent bacterial bed.
Inhibition by Bacillus coagulans was subsequently ascertained by placing approximately 1.5×10^6 CFU of Bacillus coagulans in 10 μl of broth or buffer, directly in the center of the potato-dextrose plate, with one test locus being approximately 8 mm in diameter per plate. A minimum of three test loci were used for each assay. The negative control consisted of a 10 μl volume of a sterile saline solution, whereas the positive control consisted of a 10 μl volume of glutaraldehyde. The plates were then incubated for approximately about 18 hr at 30° C., at which time the zones of inhibition were measured. […]

four species of Candida = test: In vitro inhibition assay on potato-dextrose plates, yeast pathogens; format: cell-based; conditions: positive control, 18 hr at 30° C.
Method: Each of the yeast pathogens and their ATCC accession numbers are illustrated in FIG. 5.
In the in vitro inhibition assay, potato-dextrose plates (DIFCO®, Detroit, Mich.) were prepared using standard procedures and were inoculated individually with a confluent bed about 1.7×10^6 of the four species of Candida. Inhibition by Bacillus coagulans was tested by placing on the plate about 1.5×10^6 colony forming units (CFU) in 10 μl of broth or buffer, plated directly in the center of the potato-dextrose plate with one test locus of about 8 mm in diameter per plate. A minimum of three tests were performed for each inhibition assay. The negative control consisted of a 10 μl volume of a sterile saline solution, whereas the positive control consisted of a 1 μl volume of Miconazole cream.
The plates were then incubated for approximately 18 hr at 30° C., at which time the zones of inhibition were measured. As designated herein, “excellent inhibition” means the zone was 10 mm or greater in diameter; and “good inhibition” means the zone was greater than 2 mm in diameter, but less than 10 mm in diameter.

Trichophyton species = test: In vitro inhibition assay on potato-dextrose plates, fungal pathogens; format: cell-based; conditions: positive control, 18 hr at 30° C.
Method: In the assay, potato-dextrose plates (DIFCO®, Detroit, Mich.) were prepared using standard procedures and were inoculated individually with a confluent bed (about 1.7×10^6) of various species of the fungus Trichophyton. The tested fungal strains of Trichophyton species (available from the American Type Culture Collection (ATCC; Rockville, Md.)) and their ATCC accession numbers, as well as the results of in vitro inhibition by Bacillus coagulans are illustrated in FIG. 4.
Inhibition by Bacillus coagulans was ascertained by placing on the plate approximately 1.5×10^6 colony forming units (CFU) in 10 μl of broth or buffer, plated directly in the center of the potato-dextrose plate, with one test locus per plate. The size of each test locus was approximately 8 mm in diameter and a minimum of three tests were performed for each inhibition assay. The negative control consisted of a […] of sterile saline solution, whereas the positive control consisted of a […] 2% Miconazole (1-[2-(2,4-dichlorophenyl)-2-[(2,4-dichlorophenyl)methoxylmethyl-1,11-imidazole within an inert cream.
The plates were then incubated for approximately 18 hr at 30° C., at which time the zones of inhibition were measured. […]

CC(C(=O)O)c1cccc(C(=O)c2ccccc2)c1 (stereo not shown) [Ketoprofen]
adsorption through viable, keritinized dermal tissue [1]: very limited concentration, if at all

O=CCCCC=O [glutaraldehyde]
zone of inhibition, diameter ([2]; 10 μl, average of three tests): approximately 16.2 mm
inhibition class [2]: excellent (“excellent inhibition” means the zone was 10 mm or greater in diameter)

Clc1ccc(COC(Cn2ccnc2)c2ccc(Cl)cc2Cl)c(Cl)c1 (stereo not shown) [Miconazole]
zone of inhibition, diameter (four species of Candida; cream, average of three tests): approximately 8.7 mm
inhibition class (four species of Candida): good (“good inhibition” means the zone was greater than 2 mm in diameter, but less than 10 mm in diameter)
zone of inhibition, diameter (Trichophyton species; 2% in inert cream, mean average of three tests): approximately 8.5 mm
inhibition class (Trichophyton species): good (“good inhibition” means the zone was greater than 2 mm in diameter, but less than 10 mm in diameter)
